US20220411794A1, “RNA OLIGONUCLEOTIDES FOR PREVENTING AGGREGATION OF PROTEINS” (Universitaet Wien, priority 2019, published 2022)

Molecular target: T1, human insulin (Homo sapiens, UniProt P01308)
T1 construct: purchased SIGMA
Assay: Human insulin aggregation assay (relative solubility)
Type: physicochemical
Conditions: 86 μM insulin : 20 μM RNA (molar ratio […]:1)
Procedure: The insulin aggregation assay was performed in 150 mM Tris-HCl pH 7.5. Aggregation was monitored at 360 nm (excitation: 1 nm bandwidth, emission: 10 nm bandwidth) in macro-cuvettes (1500 μl) with a pathlength of 10 mm. 86 μM human insulin (SIGMA) with or without 20 μM RNA were pre-incubated at 30° C. and the aggregation reaction was started by the addition of dithiothreitol (DTT) to a final concentration of 15 mM.

T1 sequence (P01308 25-54 limits assumed): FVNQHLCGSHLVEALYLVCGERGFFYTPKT

Question: With “RNA1: GUGGAGGCGCUGUACCUGGUGUGCGGAGAGCGCGGC; fragment of native own mRNA coding for insulin β-chain region VEALYLVCGERG (RNA, backbone not given here)” as the substance, how does the “increase in the relative solubility of insulin” value read?
Answer: 21%
